Activity calls are given as the source filed them. No cut-off for these calls is given here.
Key:
[1] = target: T1, Type-2 angiotensin II receptor (Homo sapiens) (UniProt P50052); experiment: Displacement of [125I]CGP-42112A from human AT2 receptor expressed in HEK293 cells at 10 uM; assay type: cell-based
T1 sequence (whole entry): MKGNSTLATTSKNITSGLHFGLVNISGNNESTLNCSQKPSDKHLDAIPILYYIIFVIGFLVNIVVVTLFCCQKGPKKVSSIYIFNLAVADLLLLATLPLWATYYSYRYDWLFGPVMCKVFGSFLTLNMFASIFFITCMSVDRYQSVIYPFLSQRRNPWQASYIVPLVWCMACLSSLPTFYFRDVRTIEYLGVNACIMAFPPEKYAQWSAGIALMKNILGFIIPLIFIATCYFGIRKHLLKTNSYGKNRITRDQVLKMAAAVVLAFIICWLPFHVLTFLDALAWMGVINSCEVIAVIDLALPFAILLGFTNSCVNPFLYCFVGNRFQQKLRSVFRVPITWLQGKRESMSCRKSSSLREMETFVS

[2] = target: T1, Type-2 angiotensin II receptor (Homo sapiens); experiment: Displacement of [125I]CGP-42112A from human AT2 receptor expressed in HEK293 cells at 1 uM; assay type: cell-based
[3] = target: T2, Type-1 angiotensin II receptor (Homo sapiens) (UniProt P30556); experiment: Binding affinity to AT1 receptor (unknown origin)
T2 sequence (whole entry): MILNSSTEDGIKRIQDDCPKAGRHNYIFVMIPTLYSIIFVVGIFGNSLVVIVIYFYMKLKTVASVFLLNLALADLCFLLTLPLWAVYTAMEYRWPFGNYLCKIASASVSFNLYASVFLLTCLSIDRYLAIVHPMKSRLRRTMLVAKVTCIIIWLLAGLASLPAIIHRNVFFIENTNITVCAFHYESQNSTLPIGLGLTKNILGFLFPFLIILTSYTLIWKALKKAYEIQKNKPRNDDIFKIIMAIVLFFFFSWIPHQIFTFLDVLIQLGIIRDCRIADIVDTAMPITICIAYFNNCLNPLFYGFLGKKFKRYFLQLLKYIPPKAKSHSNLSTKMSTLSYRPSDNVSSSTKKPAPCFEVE

[4] = target: T3, Type-2 angiotensin II receptor (Homo sapiens, UniProt P50052); experiment: Displacement of [125I]CGP-42112A from human AT2 receptor expressed in HEK293 cells; assay type: cell-based
T3 sequence (P50052 whole entry): T1 sequence (whole entry)

[5] = target: T3, Type-2 angiotensin II receptor; experiment: Displacement of [125I]Sarile from human AT2 receptor expressed in HEK293 cells; assay type: cell-based

SMILES | inhibition [1] | inhibition [2] | Activity [3] | Ki [4] [µM] | Ki [5] [µM]
CC[C@H](C)[C@H](NC(=O)c1cccc(Cn2ccnc2)c1)C(N)=O | inactive | inactive | inactive | – | –
CCCCNC(=O)[C@@H](NC(=O)c1cccc(Cn2ccnc2)c1)[C@@H](C)CC | 3% | inactive | inactive | – | –
CC[C@H](C)[C@H](NC(=O)c1cccc(Cn2ccnc2)c1)C(=O)NO | 4% | inactive | inactive | – | –
CC[C@H](C)[C@H](NC(=O)c1cccc(Cn2ccnc2)c1)c1nn[nH]n1 | inactive | inactive | inactive | – | –
CC[C@H](C)[C@H](NC(=O)c1cccc(Cn2ccnc2)c1)C(=O)NS(=O)(=O)c1ccccc1 | 24% | 5% | inactive | 18 | –
CCCCS(=O)(=O)NC(=O)[C@@H](NC(=O)c1cccc(Cn2ccnc2)c1)[C@@H](C)CC | – | – | inactive | 9.9 | –
CC[C@H](C)[C@H](NC(=O)c1cccc(Cn2ccnc2)c1)C(=O)NNC(=O)OC(C)(C)C | – | – | inactive | > 100 | –
CC[C@H](C)[C@H](NC(=O)c1cccc(Cn2ccnc2)c1)C(=O)O | – | – | inactive | – | 47
CCCCS(=O)(=O)NNC(=O)[C@@H](NC(=O)c1cccc(Cn2ccnc2)c1)[C@@H](C)CC | – | – | inactive | > 100 | –
CC[C@H](C)[C@H](NC(=O)c1cccc(Cn2ccnc2)c1)C(=O)NNS(=O)(=O)c1ccc(C)cc1 | 20% | 4% | inactive | 29 | –
CC[C@H](C)[C@H](NC(=O)c1cccc(Cn2ccnc2)c1)C(=O)Nc1nccs1 | 17% | 4% | inactive | 42 | –
CC[C@H](C)[C@H](NC(=O)c1cccc(Cn2ccnc2)c1)C(=O)NC#N | 9% | 6% | inactive | – | –
CCCCCS(=O)(=O)NNC(=O)[C@@H](NC(=O)c1cccc(Cn2ccnc2)c1)[C@@H](C)CC | – | – | inactive | > 100 | –
CC[C@H](C)[C@H](NC(=O)c1cccc(Cn2ccnc2)c1)C(=O)NNS(=O)(=O)c1ccc(OC)cc1 | 20% | 3% | inactive | 9.2 | –
CC[C@H](C)[C@H](NC(=O)c1cccc(Cn2ccnc2)c1)C(=O)NNS(=O)(=O)c1c(C)cc(C)cc1C | 27% | 10% | inactive | 8.5 | –
CC[C@H](C)[C@H](NC(=O)c1cccc(Cn2ccnc2)c1)C(=O)NNS(=O)(=O)c1ccccc1 | 18% | 6% | inactive | > 100 | –
CC[C@H](C)[C@H](NC(=O)c1cccc(Cn2ccnc2)c1)C(=O)NCC(F)(F)F | 14% | 6% | inactive | – | –

From ChEMBL document CHEMBL3102730, “Synthesis and evaluation of isoleucine derived angiotensin II AT(2) receptor ligands” (Bioorg Med Chem Lett, 2014)
